According to patent publication US20100248390A1, “COMPOSITIONS AND METHODS FOR IDENTIFYING LIGANDS OF ODORANT RECEPTORS” (DUKE UNIVERSITY, priority 2009, published 2010):
Read-outs that look alike come from different tables or passages of the source.

Legend:
Assay in all cases: CRE-luciferase assay of odorant receptor activation (Dual-Glo, Hana3A cells, RTP1S), dose-response EC50
Format in all cases: cell-based
[1] = biological target: T1, mouse odorant receptors (ORs) (Mus musculus, UniProt P23275)
T1 construct: OR open reading frames were amplified from genomic DNA; expressed in transfected cells; host or cells: Hana3A cells, co-transfected with RTP1S, CRE-luciferase and pRL-SV40
T1 sequence (P23275 1-312): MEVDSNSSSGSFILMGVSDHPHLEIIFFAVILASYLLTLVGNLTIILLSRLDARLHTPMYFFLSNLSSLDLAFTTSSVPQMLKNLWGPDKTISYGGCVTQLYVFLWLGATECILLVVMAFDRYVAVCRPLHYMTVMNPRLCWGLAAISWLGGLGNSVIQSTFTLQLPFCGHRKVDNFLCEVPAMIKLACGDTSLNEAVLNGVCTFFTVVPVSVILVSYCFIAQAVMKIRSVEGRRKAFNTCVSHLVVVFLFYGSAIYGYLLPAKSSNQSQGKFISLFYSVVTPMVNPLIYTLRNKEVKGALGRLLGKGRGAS
Source text: (§1) Cloning mouse and human ORs. […] OR open reading frames were amplified from genomic DNA using proofreading KOD DNA polymerase (Toyobo/Novagen) and subcloned into pCI expression vectors (Promega) containing the first 20 residues of human rhodopsin (Rho tag). The sequences of the cloned receptors were verified by sequencing (3100 Genetic Analyzer, ABI Biosystems). Immunocytochemistry and FACS analysis. […] For FACS analysis, phycoerythrin (PE)-conjugated anti-mouse IgG (Jackson Immunologicals) was used. In order to monitor the transfection efficiency, Green Fluorescent Protein (GFP) was co-transfected with the OR. The intensity of receptor cell surface expression was calculated as the ratio of PE and GFP expression. 7-aminoactinomycin D (Calbiochem) was added before flow cytometry to mark dead cells which were excluded from the analysis. The gate and mean of PE positive cells was normalized by GFP values. Luciferase assay. […] Odorant receptor activation leads to an increase in intracellular cAMP; CRE-luciferase (Stratagene) was used to measure this change. […] Hana3A cells were plated on poly-D-lysine-coated 96-well plates (BioCoat; Becton Dickinson). […] For each 96-well plate transfected, 1 μg of CRE-Luc, 1 μg of pRL-SV40, 5 μg of odorant receptor plasmid, and 1 μg of RTP1S was used. Approximately 24 hours post transfection, the medium was replaced with CD293 chemically defined medium (Gibco) and the plate was incubed for 30 min at 37° C. The medium was then replaced with 25 μL of odorant solution diluted in CD293 and the plate was incubated for 4 hrs at 37° C. and 5% CO2. The manufacturer's protocols for measuring luciferase and Renilla luciferase activities was followed. […] All luminescence values were divided by the Renilla Luciferase activity to control for transfection efficiency in a given well. Normalized luciferase activity was calculated using the formula (LN−Lmin)/(Lmax−Lmin), where LN is the luminescence of firefly luciferase in response to the odorant, Lmin is the minimum luciferase value on a plate or set of plates, and Lmax is the maximum luciferase value on a plate or set of plates. The data was analyzed using Microsoft Excel and GraphPad Prism 4. Screening procedure. The entire OR library was stimulated with eight separate odorant mixtures formed from 93 odorants (FIG. 12). […] A comparison between the 93 individual odorants at a 100 μM dose and a no-odor control was performed for all 290 […]. Each comparison was performed in triplicate; statistical significance was assessed by t-test (uncorrected for multiple comparisons). […] A single odorant was used on each plate to avoid cross-contamination, and each OR odorant dose was tested at least three times. The data was fit to a sigmoidal curve. […] Physicochemical descriptors. […] Receptor descriptors. […] Correlations between descriptors and responses. […] All odorants for which there were fewer than 3 responsive receptors were eliminated. For all remaining odorant pairs the Pearson correlation between EC50 vectors and the Euclidean distance between descriptor vectors was calculated. The Pearson correlation between these two sets of distances was then measured. Optimizing descriptors. […] In this method one begins with an empty set of descriptors. Each descriptor is combined with the previous set of descriptors and correlation values are computed for all of these candidate sets of descriptors. To reduce overfitting, the data is randomly divided into ten subsets and correlation values are computed for each leave-one out subset. The final correlation coefficient for each set of descriptors is the average of the correlation coefficients for each subset. The set with the best correlation coefficient then becomes the new set of descriptors and the process is repeated until the correlation coefficient increases by less than 0.004 in three consecutive iterations.

[2] = tested on: mouse odorant receptors (ORs); conditions: for log EC50, MOR271-1 / log EC50 (Table 4 value), MOR271-1: receptor MOR271-1
Source text: as §1

[3] = biological target: T2, human odorant receptors (ORs) (Homo sapiens, UniProt Q9P1Q5)
T2 construct: OR open reading frames were amplified from genomic DNA; expressed in transfected cells; host or cells: Hana3A cells, co-transfected with RTP1S, CRE-luciferase and pRL-SV40
T2 sequence (Q9P1Q5 1-309): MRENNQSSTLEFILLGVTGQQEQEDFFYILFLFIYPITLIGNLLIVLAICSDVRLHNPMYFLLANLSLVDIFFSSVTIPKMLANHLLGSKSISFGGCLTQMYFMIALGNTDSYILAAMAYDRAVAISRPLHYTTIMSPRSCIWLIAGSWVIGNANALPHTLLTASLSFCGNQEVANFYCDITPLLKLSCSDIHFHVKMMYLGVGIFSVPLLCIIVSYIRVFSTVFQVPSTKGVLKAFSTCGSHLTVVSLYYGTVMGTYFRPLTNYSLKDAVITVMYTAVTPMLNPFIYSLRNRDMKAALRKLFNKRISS
Source text: as §1, with “For all remaining odorant pairs the Pearson correlation between EC50 vectors and the Euclidean distance between descriptor vectors was calculated.” left out, “subset.” for “subset. The set with the best correlation coefficient then becomes the new set of descriptors and the process is repeated until the correlation coefficient increases by less than 0.004 in three consecutive iterations.”
(§2) The entire OR library was stimulated with one of 8 odorant mixtures drawn from 93 odorants chosen to represent diverse functional groups, sizes, and structures (Table 3). Each mixture was applied at five different concentrations. […] The 93 odorants were then applied individually at 100 μM to the 290 mixture-responsive ORs.

[4] = biological target: T3, human odorant receptors (ORs) (Homo sapiens, UniProt Q9Y3N9)
T3 construct: OR open reading frames were amplified from genomic DNA; expressed in transfected cells; host or cells: Hana3A cells, co-transfected with RTP1S, CRE-luciferase and pRL-SV40
T3 sequence (Q9Y3N9 1-320): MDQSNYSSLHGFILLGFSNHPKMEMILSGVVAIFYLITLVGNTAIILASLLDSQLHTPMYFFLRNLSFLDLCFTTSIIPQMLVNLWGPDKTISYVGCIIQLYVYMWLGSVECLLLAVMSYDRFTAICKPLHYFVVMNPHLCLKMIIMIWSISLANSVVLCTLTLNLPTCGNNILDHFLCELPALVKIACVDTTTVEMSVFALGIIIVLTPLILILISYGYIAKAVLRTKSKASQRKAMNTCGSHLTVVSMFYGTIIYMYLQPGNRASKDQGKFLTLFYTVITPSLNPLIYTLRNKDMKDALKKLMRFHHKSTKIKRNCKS
Source text: as §1, with “For all remaining odorant pairs the Pearson correlation between EC50 vectors and the Euclidean distance between descriptor vectors was calculated.” left out, “subset.” for “subset. The set with the best correlation coefficient then becomes the new set of descriptors and the process is repeated until the correlation coefficient increases by less than 0.004 in three consecutive iterations.”
as §2

[5] = receptor MOR41-1, 0 = no response
[6] = receptor MOR203-1, 0 = no response
[7] = receptor MOR272-1, 0 = no response
[8] = receptor OR1A1, 0 = no response, read-out: log EC50, OR1A1 (converted)
[9] = receptor OR2W1, 0 = no response, read-out: log EC50, OR2W1 (converted)
[10] = receptor OR1A1, read-out: log EC50 (Table 4 value), OR1A1 (converted)

## O=C1Cc2ccccc2O1 [2-Counpronon ?]
[1]; receptor MOR256-17, 0 = no response
  log EC50, MOR256-17: −4.575
[2]; receptor MOR1-1, 0 = no response
  log EC50, MOR1-1: −4.138
[2]; [5]
  log EC50, MOR41-1: −3.96
[2]; receptor MOR139-1, 0 = no response
  log EC50, MOR139-1: −3.585
[2]; receptor MOR258-1, 0 = no response
  log EC50, MOR258-1: −4.268
[2]; receptor MOR259-1, 0 = no response
  log EC50, MOR259-1: −3.63

## CCCCCC(C)=O [2-Haptonone]
[2]; [6]
  log EC50, MOR203-1: −4.76
[2]; 0 = no response
  log EC50, MOR271-1: −4.581
[2]; [7]
  log EC50, MOR272-1: −5.073
[3]; [8]
  EC50: 39.9 µM
[4]; [9]
  EC50: 7.21 µM

## CCCCCCCC(C)=O [2-Noranone]
[2]; [6]
  log EC50, MOR203-1: −5.064
[3]; [8]
  EC50: 265 µM
[4]; [9]
  EC50: 19.9 µM

## CCCCCCC(C)=O [2-Octanone]
[2]; [6]
  log EC50, MOR203-1: −5.023
[2]; [7]
  log EC50, MOR272-1: −4.575
[3]; [8]
  EC50: 42.7 µM
[4]; [9]
  EC50: 39.9 µM

## CCCCC(=O)CC [3-Haptonone]
[2]; [6]
  log EC50, MOR203-1: −4.099
[2]; 0 = no response
  log EC50, MOR271-1: −5.235
[2]; [7]
  log EC50, MOR272-1: −5.221
[3]; [8]
  EC50: 19.4 µM
[4]; [9]
  EC50: 33.3 µM

## CCCCCC(=O)CC [3-Octanone]
[2]; receptor MOR203-1
  log EC50 (Table 4 value), MOR203-1: −4.4
[2]
  log EC50 (Table 4 value), MOR271-1: −4.139
[2]; receptor MOR272-1
  log EC50 (Table 4 value), MOR272-1: −4.197
[3]; [10]
  EC50: 5.12 µM
[4]; receptor OR2W1, read-out: log EC50 (Table 4 value), OR2W1 (converted)
  EC50: 9.55 µM

## CCCC(=O)C(C)=O [23-Haxanedione]
[1]; receptor MOR256-17, 0 = no response, read-out: log EC50, MOR256-17 (converted)
  EC50: 14.5 µM
[2]; [5]
  log EC50, MOR41-1: −5.008
[2]; 0 = no response
  log EC50, MOR271-1: −4.824
[4]; [9]
  EC50: 434 µM

## CCC(=O)C(=O)CC [34-Hexanedione]
[1]
  EC50: 12 µM
[2]; receptor MOR41-1
  log EC50 (Table 4 value), MOR41-1: −4.692
[2]
  log EC50 (Table 4 value), MOR271-1: −4.734
[4]
  EC50: 16.6 µM

## C=CCc1ccccc1 [Allyl benzene]
[1]
  EC50: 71.4 µM
[2]; receptor MOR105-1
  log EC50 (Table 4 value), MOR105-1: −3.332
[2]; receptor MOR106-1
  log EC50 (Table 4 value), MOR106-1: −3.921

## C=CCOC(=O)CCCCCC [Allyl heptanoate]
[3]; [10]
  EC50: 475 µM

## O=C(c1ccccc1)c1ccccc1 [Benzophenone]
[2]; receptor MOR162-1
  log EC50 (Table 4 value), MOR162-1: −3.685
[2]; receptor MOR259-1
  log EC50 (Table 4 value), MOR259-1: −4.442
[2]; receptor MOR269-1
  log EC50 (Table 4 value), MOR269-1: −3.652
[3]
  EC50: 98.2 µM
[4]
  EC50: 28.8 µM

## CCCCCCCCC=O [Nonanal]
[2]; receptor MOR30-1
  log EC50 of odorant at MOR30-1 (0 = no response): −3.914
[2]; receptor MOR33-1
  log EC50 of odorant at MOR33-1 (0 = no response): −3.234
[2]; receptor MOR37-1
  log EC50 of odorant at MOR37-1 (0 = no response): −3.295
[2]; receptor MOR40-1
  log EC50 of odorant at MOR40-1 (0 = no response): −3.194
[4]; receptor OR2W1, read-out: log EC50 of odorant at OR2W1 (0 = no response) (converted)
  EC50: 252 µM
